Measured values taken from the PolyMetriX glass transition set.
± gives the standard deviation of the reports.

| Compound | glass transition temperature [°C] |
| --- | --- |
| *CC(*)(C)C(=O)OCc1ccc2c(c1)c1ccccc1n2CCCCCC (repeat unit) | 73.00 |
| *c1cccc(Oc2cccc(Oc3cccc(Oc4cccc(Oc5cccc(N6C(=O)c7ccc(Oc8ccc9c(c8)C(=O)N(*)C9=O)cc7C6=O)c5)c4C#N)c3)c2C#N)c1 (repeat unit) | 176.00 |
| *C(=O)Nc1c(C)cc(Cc2cc(C)c(NC(=O)c3ccc4c(c3)C(=O)N(c3ccc(/N=N/c5ccc(F)cc5)c(N5C(=O)c6ccc(*)cc6C5=O)c3)C4=O)c(C)c2)cc1C (repeat unit) | 279.00 |
| *Oc1ccc(C(CC)(c2ccccc2)c2ccc(OC(=O)CCCCCCCCC(*)=O)cc2)cc1 (repeat unit) | 88.00 |
| *c1c(C)cc(Cc2cc(C)c(N3C(=O)c4ccc(Oc5cccc6c(Oc7ccc8c(c7)C(=O)N(*)C8=O)cccc56)cc4C3=O)c(C)c2)cc1C (repeat unit) | 281.00 |
| *O[Si](C)(C)c1ccc([Si](C)(C)O[SiH](*)C)cc1 (repeat unit) | -65.00 |
| *C(=O)OCCN(CCOC(=O)c1ccc2c(c1)C(=O)N(c1c(C)cc(Cc3cc(C)c(N4C(=O)c5ccc(*)cc5C4=O)c(C)c3)cc1C)C2=O)c1ccc(/N=N/c2ccc([N+](=O)[O-])cc2C#N)cc1 (repeat unit) | 216.00 |
| *Oc1ccc(C(C)(C)c2ccc(OC(*)(Oc3ccccc3)Oc3ccccc3)cc2)cc1 (repeat unit) | 92.00 |
| *Nc1cc(NC(=O)c2ccc(C(*)=O)cc2)cc(C(=O)Oc2ccccc2)c1 (repeat unit) | 200.00 |
| *c1ccc(Oc2ccc(-c3ccc(Oc4ccc(-c5nc(*)nc(-c6ccccc6)n5)cc4)cc3)cc2)cc1 (repeat unit) | 241.00 |
| *CC(*)(C)C(=O)OCc1ccc(Cl)cc1Cl (repeat unit) | 19.40 |
| */C=C/C1CC(*)C2C(=O)N(c3cccc(C)c3)C(=O)C12 (repeat unit) | 206.00 |
| *COC(=O)c1ccc(/C(C#N)=C(\c2ccc(OC)cc2)N2CCCC(*)C2)cc1 (repeat unit) | 176.00 |
| *Oc1c(-c2ccccc2)cc(Cc2cc(-c3ccccc3)c(OC(=O)CCCCCCCCC(*)=O)c(-c3ccccc3)c2)cc1-c1ccccc1 (repeat unit) | 92.00 |
| *C(=O)Oc1ccc(OC(=O)c2ccc3c(c2)C(=O)N(c2ccc(S(=O)(=O)c4ccc(N5C(=O)c6ccc(*)cc6C5=O)cc4)cc2)C3=O)c(C(C)(C)C)c1 (repeat unit) | 179.00 |
| *CCOCCOc1ccc(C(=O)Nc2cc(NC(=O)c3ccc(O*)cc3)cc(-c3nc4ccccc4[nH]3)c2)cc1 (repeat unit) | 230.00 |
| *Oc1ccc(CC(NC(=O)CCc2ccc(OC(=O)CCCCC(*)=O)cc2)C(=O)OC(C)C)cc1 (repeat unit) | 56.50 |
| *C(=O)c1ccc2c(c1)C(=O)N(c1ccc(Cc3ccc(Cc4ccc(Cc5ccc(N6C(=O)c7ccc(*)cc7C6=O)cc5)cc4)cc3)cc1)C2=O (repeat unit) | 302.00 |
| */C(C)=C(/*)[Si](C)(C)CC[Si](C)(C)C (repeat unit) | 200.00 |
| *c1cc(C(=O)OCCCCCC)cc(N2C(=O)CC(C3Cc4ccccc4C4C(=O)N(*)C(=O)C43)C2=O)c1 (repeat unit) | 187.00 |
| *c1ccc(Oc2cccc(-c3cc(-c4ccccc4)cc(-c4cccc(Oc5ccc(N6C(=O)c7ccc(Oc8ccc9c(c8)C(=O)N(*)C9=O)cc7C6=O)cc5)c4)n3)c2)cc1 (repeat unit) | 224.00 |

| Compound | glass transition temperature [°C] |
| --- | --- |
| *O[Si](C)(C)CCC/N=C1\c2ccccc2/C(=N\CCC[Si](*)(C)C)c2c(O)ccc(O)c21 (repeat unit) | 7.50 |
| *Oc1ccc(CC(NC(=O)CCc2ccc(OC(=O)CCC(*)=O)cc2)C(=O)OCC)cc1 (repeat unit) | 78.00 |
| *c1ccc2c(c1)C(=O)N(c1ccc(N3C(=O)c4ccc(-c5c(-c6ccccc6)c(-c6ccccc6)c(-c6ccc(Oc7ccc(-c8c(-c9ccccc9)c(-c9ccccc9)c(*)c(-c9ccccc9)c8-c8ccccc8)cc7)cc6)c(-c6ccccc6)c5-c5ccccc5)cc4C3=O)cc1)C2=O (repeat unit) | 353.00 |
| *O[Si](*)(CCCOCCOCCOCCOCCOCCOC)CCCOCCOCCOCCOCCOCCOC (repeat unit) | -69.70 |
| *C(=O)c1ccc2c(c1)C(=O)N(c1cc(C(c3ccc(O)c(N4C(=O)c5ccc(*)cc5C4=O)c3)(C(F)(F)F)C(F)(F)F)ccc1O)C2=O (repeat unit) | 315.00 |
| *CCN(*)C(=O)c1c(F)cc(F)c(F)c1F (repeat unit) | 122.00 |
| *CC(CN1C(=O)C2C3C=CC(C3)C2C1=O)O* (repeat unit) | 87.50 |
| *CCCC(=O)Oc1ccc(-c2ccc(OC(=O)c3ccc4c(c3)C(=O)N(*)C4=O)cc2)cc1 (repeat unit) | 132.00 |
| *c1cccc(*)c1 (repeat unit) | 104.93 |
| *Oc1ccc(C(C)(C)c2ccc(OC3(F)C(*)(F)C(F)(F)C3(F)F)cc2)cc1 (repeat unit) | 98.00 |
| *CC(*)c1ccc(C(=O)OCCCCCC)cc1 (repeat unit) | 66.00 |
| *CC(C)(C)CS(=O)(=O)CC(C)(C)COC(=O)Nc1ccc(Cc2ccc(NC(=O)O*)cc2)cc1 (repeat unit) | 90.00 |
| *CC(*)OC(=O)CC (repeat unit) [Poly(vinyl propionate) ] | 10 ± 2 |
| *Cc1cc(C)c(CNC(=O)c2ccc(C(=O)N*)cc2)cc1C (repeat unit) | 225.00 |
| *CC(O)CN(CCO)S(=O)(=O)c1ccc(-c2ccc(S(=O)(=O)N(CCO)CC(O)COc3ccc(C(C)(C)c4ccc(O*)cc4)cc3)cc2)cc1 (repeat unit) | 76.00 |
| *CCCCCCN1C(=O)C(=O)N(c2ccc(CCc3ccccc3N3C(=O)C(=O)N(*)C3=O)cc2)C1=O (repeat unit) | 137.00 |
| *c1ccc(Oc2ccc(N3C(=O)c4cccc(Oc5c(C)cc(Cc6cc(C)c(Oc7cccc8c7C(=O)N(*)C8=O)c(C)c6)cc5C)c4C3=O)cc2)cc1 (repeat unit) | 270.00 |
| *CCOP(=O)(/N=N/c1ccc(-c2ccc(/N=N/P(=O)(O*)OCC)cc2)cc1)OCC (repeat unit) | 43.00 |
| *c1ccc(Oc2cccc(NC(=O)c3cc(NC(=O)c4ccc(OC(C)=O)cc4)cc(C(=O)Nc4cccc(Oc5ccc(-c6nnc(*)o6)cc5)c4)c3)c2)cc1 (repeat unit) | 270.00 |
| *Nc1ccc(Cc2ccc(NC(=O)NCCCCCCCCNC(*)=O)cc2)cc1 (repeat unit) | 50.00 |
| */C(F)=C(\F)C(F)(C(*)(F)F)C(F)(F)F (repeat unit) | -3.00 |

| Compound | glass transition temperature [°C] |
| --- | --- |
| *CCOP(=O)(/N=N/c1ccc(C(=O)c2ccc(/N=N/P(=O)(O*)OCC)cc2)cc1)OCC (repeat unit) | 33.00 |
| *CC(O)CN(C)S(=O)(=O)c1cccc(S(=O)(=O)N(C)CC(O)COc2ccc(Sc3ccc(O*)cc3)cc2)c1 (repeat unit) | 90.00 |
| *c1ccc(-c2ccc(N(c3ccc(OC)cc3)c3ccc4ccc(N(*)c5ccc(OC)cc5)cc4c3)cc2)cc1 (repeat unit) | 232.00 |
| *CCOC(=O)c1cc(C(=O)O*)cc(C(C)(C)C)c1 (repeat unit) | 94.00 |
| *C(=O)c1ccc2c(c1)C(=O)N(c1ccc(C(=O)Nc3ccc(Oc4ccc(NC(=O)c5ccc(NC(=O)Nc6ccc(Cc7ccc(NC(=O)Nc8ccc(C(=O)Nc9ccc(Oc%10ccc(NC(=O)c%11ccc(N%12C(=O)c%13ccc(*)cc%13C%12=O)cc%11)cc%10)cc9)cc8)cc7)cc6)cc5)cc4)cc3)cc1)C2=O (repeat unit) | 229.00 |
| *CC(*)(C)C(=O)Oc1ccc(/C=C/c2ccccc2)cc1 (repeat unit) | 143.00 |
| *c1ccc([Si](c2ccccc2)(c2ccccc2)c2ccc(-c3nnc(-c4ccc(-c5nnc(*)o5)cc4)o3)cc2)cc1 (repeat unit) | 274.00 |
| *Oc1ccc(Oc2c(F)c(F)c(-c3c(F)c(F)c(*)c(F)c3F)c(F)c2F)cc1S(=O)(=O)O (repeat unit) | 120.00 |
| *Oc1ccc(NC(=O)c2cc(C(=O)Nc3ccc(*)cc3)c(C(=O)O)cc2C(=O)O)cc1 (repeat unit) | 207.40 |
| *OC(=O)C(C)NC(=O)CCCCC(=O)NC(C)C(=O)OC1COC2C(*)COC12 (repeat unit) | 56.00 |
| *CCN(CCN1C(=O)c2ccc(C(c3ccc4c(c3)C(=O)N(*)C4=O)(C(F)(F)F)C(F)(F)F)cc2C1=O)c1ccc(/N=N/c2ccc(C#N)cc2)cc1 (repeat unit) | 213.00 |
| *C(=O)Nc1ccc(S(=O)(=O)c2ccc(NC(=O)c3ccc4c(c3)C(=O)N(c3ccc(Oc5ccc(N6C(=O)c7ccc(*)cc7C6=O)cc5)cc3)C4=O)cc2)cc1 (repeat unit) | 275.00 |
| *c1ccc(C2(c3ccc(-c4cc(-c5ccccc5)c5cc(C6(c7ccc8nc(*)cc(-c9ccccc9)c8c7)c7ccccc7-c7ccccc76)ccc5n4)cc3)c3ccccc3C(=O)c3ccccc32)cc1 (repeat unit) | 385.00 |
| *C(=O)Nc1ccc(Sc2ccc(NC(=O)c3ccc4c(c3)C(=O)N(c3ccc(Oc5ccc(C6(c7ccc(Oc8ccc(N9C(=O)c%10ccc(*)cc%10C9=O)cc8)cc7)NC(=O)c7ccccc76)cc5)cc3)C4=O)cc2)cc1 (repeat unit) | 312.00 |
| *CC(O)COc1ccc(C(C)(C)c2ccc(OCC(O)COc3ccccc3C(=O)Nc3ccc(O*)cc3)cc2)cc1 (repeat unit) | 121.00 |
| *CC(*)OC(=O)OCC(Cl)(Cl)Cl (repeat unit) | 74.00 |
| *CC(*)c1ccc(CCl)cc1 (repeat unit) | 113.50 |
| *CC(*)c1ccc(COc2ccc(-c3ccc(-c4ccc(-c5ccc(CCCCCC)s5)s4)c4nsnc34)cc2)cc1 (repeat unit) | 122.00 |
| *CCCCCCCCCCOC(=O)c1ccc(-c2ccc(C(=O)O*)cc2)cc1 (repeat unit) | 52.00 |
